Experimental data as given in US11066421B1, “Synthetic cinchona alkaloids against cancer” (Ares Pharmaceuticals, LLC, priority 2021, dated 2021).

Columns and labels:
[1] = test system: primary leukemia/lymphoma cells; experiment: Annexin V flow cytometric apoptosis assay in primary cells from patients; format: cell-based, human
Procedure: Apoptotic death was monitored using multiparameter flow cytometry, as previously reported (F. M. Uckun, et al., 2011, British Journal of Haematology, 153:741-752; F. M. Uckun et al., 2015, J Clin Invest., 125:1006-18). Controls included vehicle (PBS) treated cells (CON). Cells were analyzed for apoptosis using the standard quantitative flow cytometric apoptosis assay using the Annexin V-FITC Apoptosis Detection Kit from Sigma. The labeled cells were analyzed on a flow cytometer. The percent apoptosis was calculated using the formula: 100-100×(Percentage of non-apoptotic cells in test sample/Percentage of non-apoptotic cells in untreated control sample). The percentages for Annexin V FITC^−PI^− viable cells and Annexin V-FITC^+PI^+ advanced apoptotic cells for each sample are indicated in the respective quadrants of the depicted two-color fluorescence dot plots.
We examined the ability AP-5 to cause apoptotic death in freshly obtained primary cancer cells from Ficoll-Hypaque separated, highly enriched populations of primary leukemia/lymphoma cells isolated from bone marrow (BM, N=13) or peripheral blood (PB, N=13) specimens of 26 patients with hematological malignancies, 3 patients with rare forms of leukemia (one each with prolymphocytic leukemia [PLL], plasma cell leukemia [PCL], large granular cell leukemia [LGL]), one patient with chronic myeloid leukemia in blast crisis (CML-BC), including 8 patients with chronic lymphocytic leukemia (CLL)/well differentiated lymphocytic lymphoma (WDLL), one patient with acute myeloid leukemia (AML), 11 patients with B-lineage acute lymphoblastic leukemia (ALL) and 2 patients with T-lineage ALL (FIG. 1). Cells were treated with standard chemotherapeutic agents at various concentrations provided in RPMI-1640 medium supplemented with 10% fetal bovine serum (FBS) and incubated at 37° C. for 24 hr. Dexamethasone (DEQ.) was used. at 50 μg/ml, Adriamycin (ADR) at 10 μg/ml, vincristine (VCR), gemcitabine (GEM), fludarabine (FLU), methotrexate (MTX), etoposide (ETO), cytarabine (ARA-C) and cladribine (2-CDA) at 25 μg/ml. The cells were washed with serum-free RPMI-1640 medium and then processed for apoptosis assays. […]
Apoptotic death was monitored using multiparameter flow cytometry, as previously reported (F. M. Uckun et at, 2006, Brit Journal of Hematol. 135:500-8; F. M. Uckun et al., 2011, Brit Journal of hematol. 153:741-52; F. M. Uckun et al., 2015, J. Clin. Invest. 125:1006-18). Exposure of phosphatidylserine to the outer leaflet of the leukemic cell membrane was measured using fluorescein isothiocyanate (FITC)-conjugated annexin V, the natural ligand of phosphatidylserine (R&D Systems, Minneapolis, Minn., USA). […] The labelled cells were analyzed using a FACS Vantage flow cytometer (Becton Dickinson, Mountain view, CA, USA). […]

[2] = test system: leukemia-initiating ALL xenograft cells; experiment: Leukemia-initiating ALL xenograft cells treated in vitro and reinjected into NOD/SCID mice; format: in vivo, human; conditions: for spleen leukemia burden (nucleated spleen cell count) / spleen size (mean±SE): NOD/SCID mice sacrificed at 85 days
Procedure: Patient derived xenograft mouse models have predictive value for clinical responses (Xu C, Li X, Liu P, Li M and Luo F: Patient-derived xenograft mouse models: A high fidelity tool for individualized medicine (Review). Oncol Lett 17: 3-10, 2019). Xenograft clones isolated from spleens of NOD/SCID mice that developed overt leukemia after inoculation with primary leukemia cells from a B-lineage ALL patient were treated for 24 hours at 37° C. with one of two concentrations of AP-5 (1 μM or 3 μM in phosphate buffered saline [PBS] with 2% DMSO) or vehicle (PBS with 2% DMSO) and then reinjected into NOD/SCID mice (Control group: 9 mice; AP-5 groups: 8 mice per concentration level). Mice were monitored for signs of leukemia, and all mice in a given experiment were sacrificed when any mouse developed morbidity. The animal research in mice was conducted according to approved local IACUC protocols. All animal care procedures conformed to the Guide for the Care and Use of Laboratory Animals (National Research Council, National Academy Press, Washington D.C., USA. Revised 1996). Leukemia cells isolated from deidentified patient specimens were used in the described experiments.
Eight of the 9 control mice challenged with vehicle-treated xenograft cells developed leukemia between 81 and 85 days. All remaining mice were also sacrificed at 85 days. The spleen size and spleen leukemia burden were compared using previously published procedures (F. M. Uckun et al., 2015, J Clin Invest. 125:1006-18). […] The nucleated spleen cell count in these leukemic mice ranged from 192×10^6 to 940×10^6 (median: 576×10^6). The mean±SE values for all 9 control mice was 3.2±0.2 cm for the spleen size and 536.39±94.45×10^6 cells for the spleen leukemia burden (FIG. 4). By comparison, the spleens of mice inoculated with xenograft cells treated with AP-5 at a concentration of 1 μM (mean±SE=1.5±0.1 cm) (P=0.0011) or 3 μM (mean±SE=1.5±0.0 cm) (P=0.0018) were much smaller and contained substantially fewer cells (1 μM group: 7.95±1.11×10^6 cells/P=0.0104; 3 μM group: 5.84±1.07×10^6 cells/P=0.00002). […] FIG. 4 illustrates that AP-5 abrogates the ability of leukemia-initiating ALL xenograft cells to cause leukemia in NOD/SCID mice. The depicted Whisker plots in FIG. 4 represent the median and values (Min to Max. all data points are shown) for spleen size (A), and spleen leukemia burden (B). Kruskall Wallis and Dunn's multiple comparisons test were used for comparing the results among different groups (p<0.05). Statistical significance between groups is shown by the depicted p-values.

[3] = 24 hr in vitro exposure, primary cells from 26 patients
[4] = xenograft cells treated 24 h with 1 μM
[5] = xenograft cells treated 24 h with 3 μM

2,4,6-Tri (9-O-dihydrocinchoninyl)pyrimidine [AP-5]
% apoptosis (Mean±SE) [1, 3]: 93.5±1.1%
median percentage of apoptosis [1, 3]: 96.1%
% apoptosis (range) ([1]; 24 hr in vitro exposure, primary cells from 26 patients, range): 79.9-99.6%
potency versus standard chemotherapy drugs tested side by side ([1]; 24 hr, % apoptosis compared): substantially more potent than any of the 9 standard chemotherapy drugs tested side by side
ability of xenograft cells to initiate leukemia in NOD/SCID mice ([2]; low micromolar concentration (1 or 3 μM)): capable of abrogating the ability of the putative leukemic stem cell subpopulation of BPL xenograft cells to initiate leukemia
spleen leukemia burden (nucleated spleen cell count) [2, 4]: 7.95±1.11 ×10^6 cells
spleen size (mean±SE) [2, 4]: 1.5±0.1 cm
spleen leukemia burden (nucleated spleen cell count) [2, 5]: 5.84±1.07 ×10^6 cells
spleen size (mean±SE) [2, 5]: 1.5±0.0 cm
